Experimental findings from ChEMBL document CHEMBL5532701 (RSC Med Chem, 2024) are described below.

Structures are written as SMILES. In brackets after ≈: the same amount, converted by molar mass.

For series [1], the system named is Haemophilus influenzae. Description: Antibacterial activity against Haemophilus influenzae ATCC 43095 assessed as reduction in bacterial growth incubated for 20 hrs. Type of series: functional.
Series [2] deals with T1, 1-deoxy-D-xylulose-5-phosphate synthase (Haemophilus influenzae (strain 86-028NP), UniProt Q4QKG6).
T1 sequence (Q4QKG6 whole entry): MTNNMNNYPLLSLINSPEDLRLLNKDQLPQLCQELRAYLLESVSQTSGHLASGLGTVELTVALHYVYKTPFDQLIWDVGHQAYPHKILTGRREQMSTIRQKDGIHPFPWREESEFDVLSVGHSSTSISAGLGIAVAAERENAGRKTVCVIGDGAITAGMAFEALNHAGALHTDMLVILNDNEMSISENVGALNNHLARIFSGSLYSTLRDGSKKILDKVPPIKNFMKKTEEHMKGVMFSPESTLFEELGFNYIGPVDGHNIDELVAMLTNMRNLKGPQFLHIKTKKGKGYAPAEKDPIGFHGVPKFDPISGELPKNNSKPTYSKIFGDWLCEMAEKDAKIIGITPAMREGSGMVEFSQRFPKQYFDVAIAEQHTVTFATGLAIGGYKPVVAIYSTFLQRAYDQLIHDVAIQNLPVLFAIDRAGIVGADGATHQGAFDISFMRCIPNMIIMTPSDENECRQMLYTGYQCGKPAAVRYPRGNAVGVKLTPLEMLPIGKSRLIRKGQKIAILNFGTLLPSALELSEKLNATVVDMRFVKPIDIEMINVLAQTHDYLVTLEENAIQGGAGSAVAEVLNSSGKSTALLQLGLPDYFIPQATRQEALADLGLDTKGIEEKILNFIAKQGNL
In words: Inhibition of Haemophilus influenzae recombinant DXPS.

The nature of series [3]: Inhibition of N-terminal his-tagged Chlamydomonas DXPS.
The test system of series [4] is Escherichia coli. Description: Antibacterial activity against Escherichia coli W3110 assessed as reduction in bacterial growth incubated for 20 hrs. It is filed as functional.
The subject of series [5] is HFF. In words: Cytotoxicity against human HFF cells assessed as inhibition of cell proliferation upto 1000 uM incubated for 96 hrs by SYBR-safe assay. It is filed as toxicity, cell-based.
A short description of series [6]: Permeability of the compound assessed as absorbed fraction incubated for 10 hrs by PAMPA assay. It is filed as ADME. (In general: The PAMPA barrier holds no transporters, so it reflects passive diffusion.)

For the compound `CC(C)(C(=O)O)C(=O)N(O)Cc1ccccc1Cl`, the MIC in series [1] stood at 117 µM (≈ 31.8 µg/mL).
Take `CC1(C)C(=O)ON(Cc2ccccc2Cl)C1=O` [KETOCLOMAZONE]: the MIC in series [1] was determined as 31 µM (≈ 7.86 µg/mL); in series [4], 3100 µM (≈ 786 µg/mL). Besides, the IC50 (as a rule, the concentration that inhibits the measured activity by half) turned out to be 28 µM in series [2] and 100 µM in series [3]. Moreover, in series [5], the Activity result is reported as “Non-Toxic”. The permeability in series [6] is reported as 47%.
